SMILES strings stand for the structures. A value given as a limit tells only on which side of the number the result lay.

These results are taken from patent publication US12077778B2, “Methods of generating human inner ear sensory epithelia and sensory neurons” (INDIANA UNIVERSITY RESEARCH AND TECHNOLOGY CORPORATION, priority 2015, dated 2024).

Type in all cases: cell-based, human
The subject of test [1] is hPS cell aggregates. Description: Otic placode-like cell induction by CHIR treatment on day 8. Particulars: CHIR 3 μM added on day 8. As to the method:
hPSC differentiation. To start differentiation, hPSC cells were dissociated with StemPro Accutase (Invitrogen) and distributed, 5,000 cells per well, onto 96-well V-bottom plates in E8 medium containing 20 μM Y-27632 (Stemgent) and Normocin. Following a 48 hour incubation, the aggregates were transferred to 96-well U-bottom plates in 100 μl of Chemically Defined Medium (CDM) containing 4 ng ml^−1 FGF-2 (Peprotech), 10 μM SB-431542 (Stemgent), and, for some experiments, 2.5 ng ml^−1 BMP4 (Stemgent), and 2% Growth Factor Reduced (GFR) Matrigel (Corning) to initiate non-neural induction—i.e. differentiation day 0. CDM contained a 50:50 mixture of F-12 Nutrient Mixture with GlutaMAX (Gibco) and Iscove's Modified Dulbecco's Medium with GlutaMAX (IMDM; Gibco) additionally supplemented with 0.5% Bovine Serum Albumin (BSA), 1× Chemically Defined Lipid Concentrate (Invitrogen), […] (Sigma), 15 μg ml^−1 Transferrin (Sigma), 450 μM Mono-Thioglycerol, and Normocin (see Table 1 for a detailed formulation). […] For some experiments, CDM containing a 18 μM CHIR99021 (3 μM final concentration; Stemgent) was added to the pre-existing 125 μl of media in each well—we determined that this treatment is optional for inner ear organoid production, but may improve induction of otic placode-like cells. […]

In test [2] the test system is Matrigel-embedded hPSC aggregates. Description: Otic pit/vesicle formation in Matrigel-embedded day 12 aggregates treated with Wnt agonist. An excerpt:
To promote PAX2 expression and vesicle formation, we began testing various signaling modulators (FIGS. 12A-12C). […] We suspected that extracellular matrix could provide structural support for vesicle formation; thus, we transferred day 12 aggregates to Matrigel droplets in a minimal media (FIG. 4A). In these cultures, we observed radial production of migratory cells, but no vesicle-like structures or PAX2^+ cells were apparent (FIG. 2B). Wnt activation seems to be essential for otic, but not epibranchial development, in vivo and can enhance the production of mouse inner ear organoids in vitro^4,19-21. Remarkably, in 90.9±5.2% of Matrigel®-embedded aggregates treated with a Wnt signaling agonist, CHIR99021, between days 12-16 (n=84, 7 experiments), we witnessed epithelial protrusions reminiscent of the otic pits that precede vesicle development in vivo (FIG. 4C). We determined that the otic pit-like structures were PAX2^+ PAX8^+ SOX2^+ SOX10^+ JAG1^+, confirming otic identity (FIGS. 4D-4H). […] The aggregates were resuspended in ice cold undiluted GFR Matrigel and placed in approximately 25 μl droplets on the surface of a 100 mm bacterial culture plate. After at least 30 minutes of incubation at 37° C., the droplets were bathed in 10 ml of OMNI containing 3 μM CHIR99021. For non-droplet otic induction, the aggregates were washed and plated individually into each well of a 24-well low cell adhesion plate in OMNI containing 3 μM CHIR and 1% GFR Matrigel. After 18 days of differentiation, the CHIR was removed from the medium by washing and the droplet aggregates were moved to a floating culture. Droplets were carefully dislodged using a wide-mouth […] tip and transferred to 75 ml of fresh OMNI in a 125 ml disposable spinner flask (Corning). Spinner flasks were maintained on an in-incubator stir plate (Thermo Scientific) at 65 RPM for up to 180 days of differentiation. For some experiments, the aggregates were maintained in individual wells of 24-well low-cell adhesion plates in 1 ml of OMM on an in-incubator orbital shaker (Thermo Scientific) for up to 140 days. […]

For test [3], the system named is OEPD-induced aggregates. Description: qPCR of PAX8/PAX2 expression after WNT and FGF signaling modulation, days 8-10. Particulars: one exploratory experiment. As to the method:
Thus, we changed strategies by lengthening the initial culture phase to 12 days (with addition of fresh media on day 8) and testing the effect of transitioning the aggregates to Matrigel™ droplets.
Quantitative PCR. Analysis was performed as previously described on an ABI PRISM 7900HT Sequence Detection System (Applied Biosystems) or a Bio-Rad CFX96 quantitative PCR machine (Bio-Rad)^6. Data were normalized to L27 expression (internal control) and the fold change was calculated relative to Ct values from d0 WA25 aggregates using the ΔΔCt method. Unless stated otherwise, data represent at least 3 separate biological samples from separate experiments. All indicators of statistical significance refer to comparisons between a given condition and the control group. Refer to Table 4 for primer details.
On the technique in general: In qPCR the cycle at which signal appears reflects the starting amount.

Take `Cc1c[nH]c(-c2cnc(NCCNc3ccc(C#N)cn3)nc2-c2ccc(Cl)cc2Cl)n1` [CHIR99021]: the “PAX2+ cells by day 12” value in test [1] is listed as “induces small patches of PAX2+ cells”. Further, the “aggregates with epithelial protrusions reminiscent of otic pits” value in test [2] (CHIR99021 between days 12-16, n=84, 7 experiments) is recorded as 90.9±5.2%. In addition, the “PAX8+ PAX2+ SOX10+ vesicles evaginating from the outer epithelium” value in test [2] (CHIR between days 12-18) was 10-30 vesicles per aggregate. Also, the “aggregates with otic vesicle formation” value in test [2] (Matrigel embedding with continued CHIR, days 12-18, >100 aggregates, four independent experiments) is recorded as more than 95%. For the same compound, the “PAX2 expression (qPCR) compared to DMSO controls” value in test [3] was “only had a modest positive or negative impact on PAX2 expression”.
